Tests used:
Format in all cases: in vivo
wild oat (Avena fatua) = experiment: Test D postemergence plant response; details: for Plant response rating, Oat, Wild: scale 0 to 100, 0 no effect, 100 complete control
In short: (§1)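 Postemergence spray on plants 2–18 cm tall (1- to 4-leaf stage), grown in pots of peat/vermiculite medium. Plants were kept in a greenhouse for 13–15 days, then visually rated against untreated controls on a 0 (no effect) to 100 (complete control) scale.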

[1] = system: chickweed (common chickweed, Stellaria media); experiment: Test D postemergence plant response; details: for Chickweed plant response rating: scale 0 to 100 (0 no effect, 100 complete control); for Plant response rating, Chickweed: scale 0 to 100, 0 no effect, 100 complete control
In short: as §1

kochia (Kochia scoparia) [2] = experiment: Test D postemergence plant response; details: for Plant response rating, Kochia: scale 0 to 100, 0 no effect, 100 complete control
In short: as §1

corn (Zea mays) = experiment: Test B pre-/postemergence plant response
In short: (§2)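 Seeds in loam–sand blend given preemergence soil spray; separately, plants at one- to two-leaf stage (2–10 cm) sprayed postemergence, compounds in non-phytotoxic solvent with surfactant. Injury rated visually versus untreated controls after ~10 days in greenhouse, 0 (no effect) to 100 (complete control).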

[3] = system: barnyardgrass (Echinochloa crus-galli); experiment: Test B pre-/postemergence plant response
In short: as §2

[4] = system: Italian ryegrass (Lolium multiflorum); experiment: Test B pre-/postemergence plant response
In short: as §2

kochia (Kochia scoparia) [5] = experiment: Test B pre-/postemergence plant response
In short: as §2

[6] = system: pigweed (Amaranthus retroflexus); experiment: Test B pre-/postemergence plant response
In short: as §2

[7] = system: ragweed (common ragweed, Ambrosia elatior); experiment: Test B pre-/postemergence plant response
In short: as §2

[8] = system: giant foxtail (Setaria faberii); experiment: Test B pre-/postemergence plant response
In short: as §2

[9] = system: wheat (Triticum aestivum); experiment: Test B pre-/postemergence plant response
In short: as §2

rice (Oryza sativa) = experiment: Test C flooded paddy test plant response; details: Flood, 250 g ai/ha; scale of 0 to 100 where 0 is no effect and 100 is complete control; 13 to 15 days
In short: (§3)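 Water-applied treatment: compounds go directly into floodwater standing 3 cm over the soil of pots holding 2-leaf-stage plants. Depth is kept constant; plants stay in a greenhouse 13 to 15 days before visual comparison with controls on a 0–100 scale.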

[10] = system: barnyardgrass (Echinochloa crus-galli); experiment: Test C flooded paddy test plant response; details: Flood, 250 g ai/ha; scale of 0 to 100 where 0 is no effect and 100 is complete control; 13 to 15 days
In short: as §3

[11] = system: ducksalad (Heteranthera limosa); experiment: Test C flooded paddy test plant response; details: Flood, 250 g ai/ha; scale of 0 to 100 where 0 is no effect and 100 is complete control; 13 to 15 days
In short: as §3

[12] = system: small-flower umbrella sedge (Cyperus difformis); experiment: Test C flooded paddy test plant response; details: Flood, 250 g ai/ha; scale of 0 to 100 where 0 is no effect and 100 is complete control; 13 to 15 days
In short: as §3

[13] = system: blackgrass (Alopecurus myosuroides); experiment: Test B postemergence plant response
In short: (§4)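 Weeds grown in loam soil/sand pots were sprayed postemergence at 2 to 10 cm height, one- to two-leaf stage. After approximately 10 days in greenhouse, injury was rated visually against untreated controls on a 0 (no effect) to 100 (complete control) scale; dash means no test result.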

[14] = system: galium (catchweed bedstraw, Galium aparine); experiment: Test B postemergence plant response
In short: as §4

[15] = 31 g ai/ha, scale 0 to 100 (0 no effect, 100 complete control)
[16] = 125 g ai/ha, postemergence, 0 to 100 scale, 0 no effect, 100 complete control
[17] = Postemergence, 31 g ai/ha, 0 to 100 scale (0 no effect, 100 complete control)
[18] = 31 g ai/ha, Preemergence, 0 to 100 scale where 0 is no effect and 100 is complete control
[19] = Preemergence, 125 g ai/ha, 0 to 100 scale (0 no effect, 100 complete control)

Question: With `FC(F)(Br)c1cc(-c2ccccc2Oc2ncc(Cl)cn2)no1` [Compound 162] as the compound, how does the “Oat, Wild plant response rating” value (wild oat (Avena fatua); [15]) read?
Answer: Its value is 5.

Question: And the “Plant response rating, Oat, Wild” value (wild oat (Avena fatua); 62 g ai/ha)?
Answer: Its value is 5.

Question: And the “Plant response rating, Oat, Wild” value (wild oat (Avena fatua); 125 g ai/ha)?
Answer: Its value is 10.

Question: And the “Chickweed plant response rating” value ([1]; 16 g ai/ha)?
Answer: Its value is 50.

Question: What about the “Chickweed plant response rating” value ([1]; 31 g ai/ha) of the same compound?
Answer: The value was 60.

Question: And the “Plant response rating, Chickweed” value ([1]; 62 g ai/ha)?
Answer: Its value is 60.

Question: And the “Plant response rating, Chickweed” value ([1]; 125 g ai/ha)?
Answer: The value was 85.

Question: And the “Kochia plant response rating” value (kochia (Kochia scoparia) [2]; [15])?
Answer: The value was 100.

Question: What about the “Plant response rating, Kochia” value (kochia (Kochia scoparia) [2]; 62 g ai/ha) of the same compound?
Answer: The value was 100.

Question: And the “Plant response rating, Kochia” value (kochia (Kochia scoparia) [2]; 125 g ai/ha)?
Answer: Its value is 100.

Question: And the “Plant response rating, Corn” value (corn (Zea mays); [16])?
Answer: Its value is 40.

Question: And the “Plant response rating, Corn” value (corn (Zea mays); [17])?
Answer: Its value is 20.

Question: What about the “Plant response rating, Barnyardgrass” value [3, 18] of the same compound?
Answer: The value was 20.

Question: And the “Plant response rating, Barnyardgrass” value [3, 16]?
Answer: The value was 90.

Question: And the “Plant response rating, Barnyardgrass” value [3, 17]?
Answer: The value was 10.

Question: What about the “Barnyardgrass plant response rating” value [3, 19] of the same compound?
Answer: The value was 100.

Question: And the “Plant response rating, Ryegrass, Italian” value [4, 18]?
Answer: Its value is 0.

Question: What about the “Plant response rating, Ryegrass, Italian” value [4, 16] of the same compound?
Answer: Its value is 50.

Question: And the “Plant response rating, Ryegrass, Italian” value [4, 17]?
Answer: The value was 0.

Question: What about the “Ryegrass, Italian plant response rating” value [4, 19] of the same compound?
Answer: The value was 40.

Question: What about the “Plant response rating, Kochia” value (kochia (Kochia scoparia) [5]; [18]) of the same compound?
Answer: The value was 70.

Question: And the “Plant response rating, Kochia” value (kochia (Kochia scoparia) [5]; [16])?
Answer: The value was 100.

Question: And the “Plant response rating, Kochia” value (kochia (Kochia scoparia) [5]; [17])?
Answer: The value was 90.

Question: What about the “Kochia plant response rating” value (kochia (Kochia scoparia) [5]; [19]) of the same compound?
Answer: Its value is 70.

Question: And the “Plant response rating, Pigweed” value [6, 18]?
Answer: The value was 80.

Question: What about the “Plant response rating, Pigweed” value [6, 16] of the same compound?
Answer: Its value is 100.

Question: And the “Plant response rating, Pigweed” value [6, 17]?
Answer: Its value is 100.

Question: What about the “Pigweed plant response rating” value [6, 19] of the same compound?
Answer: The value was 100.

Question: And the “Plant response rating, Ragweed” value [7, 18]?
Answer: Its value is 0.

Question: What about the “Plant response rating, Ragweed” value [7, 16] of the same compound?
Answer: Its value is 40.

Question: And the “Plant response rating, Ragweed” value [7, 17]?
Answer: The value was 0.

Question: And the “Ragweed plant response rating” value [7, 19]?
Answer: The value was 20.

Question: What about the “Plant response rating, Foxtail, Giant” value [8, 18] of the same compound?
Answer: The value was 90.

Question: What about the “Plant response rating, Foxtail, Giant” value [8, 16] of the same compound?
Answer: The value was 90.

Question: And the “Plant response rating, Foxtail, Giant” value [8, 17]?
Answer: Its value is 10.

Question: And the “Foxtail, Giant plant response rating” value [8, 19]?
Answer: The value was 100.

Question: And the “Plant response rating, Wheat” value [9, 16]?
Answer: Its value is 30.

Question: And the “Plant response rating, Wheat” value [9, 17]?
Answer: Its value is 20.

Question: What about the “Rice plant response rating” value (rice (Oryza sativa)) of the same compound?
Answer: The value was 0.

Question: And the “Barnyardgrass plant response rating” value [10]?
Answer: The value was 0.

Question: What about the “Ducksalad plant response rating” value [11] of the same compound?
Answer: Its value is 0.

Question: What about the “Sedge, Umbrella plant response rating” value [12] of the same compound?
Answer: The value was 0.

Question: And the “Plant response rating, Blackgrass” value [13, 16]?
Answer: Its value is 30.

Question: What about the “Plant response rating, Blackgrass” value [13, 17] of the same compound?
Answer: The value was 30.

Question: What about the “Plant response rating, Galium” value [14, 16] of the same compound?
Answer: The value was 90.

Question: What about the “Plant response rating, Galium” value [14, 17] of the same compound?
Answer: The value was 90.

Source: patent US10131652B2, “Pyrimidinyloxy benzene derivatives as herbicides” (E. I. DU PONT DE NEMOURS AND COMPANY, priority 2014, dated 2018)
